Data as given in US20110053773A1, “METHODS OF IMPROVING NUTRITIONAL VALUE OF PLANTS” (UNIVERSITY OF TENNESSEE RESEARCH FOUNDATION, priority 2009, published 2011).

What was measured:
Assay type in all cases: in vivo
[1] = system: kale 'Red Russian'; test: Content analysis of kale: protein, amino acids, fiber, fatty acids, minerals (Example 4, Tables 12-14); conditions: 28 DA-A
Experimental: (§1) Greenhouse and laboratory studies were conducted to ascertain the tolerance and nutritional quality differences following postemergence applications of the insecticide chlorpyrifos, the fungicide chlorothalonil, the PGRs mepiquat-chloride and paclobutrazol, and the safeners napthalic anhydride and isoxadifen-ethyl on kale ‘Red Russian’ and basil ‘Genovese’. Visual injury was rated based on general phytotoxicity, chlorosis, and visual stunting and each measurement was based on a percent scale from 0 to 100 where 0 equals no visual response and 100 equals complete plant death. Kale and basil were both harvested approximately 4 weeks after treatments and plants were pooled over replicates for content analysis of crude protein, crude amino acid content, acid detergent fiber, neutral detergent fiber, total fatty acids, and/or key mineral content (including Na, Ca, P, Mg, K, Fe, Mn, Zn, and Cu). In addition, the amounts of key individual amino acids (aspartic acid, threonine, glutamic acid, proline, glycine, cysteine, valine, leucine, isoleucine, methionine, and lysine) and composite classifications of fatty acid (saturated fatty acids, monounsaturated fatty acids, polyunsaturated fatty acids) were also analyzed from these sub-samples for kale (Tables 10-14).

[2] = system: basil 'Genovese'; test: Content analysis of basil: protein, minerals (Example 4, Tables 10-11); conditions: 28 DA-A
Summary of the method: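 Plants received postemergence sprays of one insecticide, one fungicide, two PGRs or two safeners in the greenhouse. About 4 weeks later they were harvested, and replicates were pooled for laboratory content analysis. Injury was rated visually on a 0–100% scale.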

[3] = system: basil ‘Genovese’; test: Yield, fresh weight of basil after insecticide, fungicide, PGRs and safeners (Example 4, Table 10); conditions: DA-A, check 31.8
Experimental: as §1

[4] = system: kale ‘Red Russian’; test: Yield, fresh weight of kale after insecticide, fungicide and PGRs (Example 4, Table 12); conditions: 28 DA-A, Untreated Check 106.9
Experimental: as §1

[5] = rates g ai/ha: chlropyrifos 1120, chlorothalonil 2630, paclobutrazol 3.23, mepiquat-chloride 12.3, + NIS 0.25 % v/v
[6] = rates g ai/ha: chlropyrifos 3370, chlorothalonil 7900, paclobutrazol 9.7, mepiquat-chloride 37, + NIS 0.25 % v/v
[7] = second-listed rate g ai/ha: chlropyrifos ###, chlorothalonil ###, paclobutrazol 9.7, mepiquat-chloride 37, + NIS 0.3 % v/v
[8] = rates g ai/ha: chlroprifos 3370, chlorothalonil 7900, paclobutrazol 9.7, mepiquat-chloride 37, Isoxadifen 16, Napthalic anhydride 527, + NIS 0.25 % v/v
[9] = rates g ai/ha: chlropyrifos 1120, chlorothalonil 2630, paclobutrazol 3.23, mepiquat-chloride 12.3, Isoxadifen 8, Napthalic anhydride 264, + NIS 0.25 % v/v

## CC(C)(C)[C@@H](O)[C@@H](Cc1ccc(Cl)cc1)n1cncn1 (racemic) [paclobutrazol]
[1]; [5]
  Potassium, Percent Increase Over the Untreated Check (on a % dry matter basis): 3 % check
  Sodium, Percent Increase Over the Untreated Check (on a % dry matter basis): −1 % check
  Zinc, Percent Increase Over the Untreated Check (on a % dry matter basis): 11 % check
[1]; [6]
  ADF, Percent Increase Over the Untreated Check (on a % dry matter basis): −1 % check
  Calcium, Percent Increase Over the Untreated Check (on a % dry matter basis): 22 % check
  Copper, Percent Increase Over the Untreated Check (on a % dry matter basis): 28 % check
  Iron, Percent Increase Over the Untreated Check (on a % dry matter basis): −5 % check
  Magnesium, Percent Increase Over the Untreated Check (on a % dry matter basis): 11 % check
  Manganese, Percent Increase Over the Untreated Check (on a % dry matter basis): 20 % check
  NDF, Percent Increase Over the Untreated Check (on a % dry matter basis): −8 % check
  Phosphorous, Percent Increase Over the Untreated Check (on a % dry matter basis): 12 % check
  Potassium, Percent Increase Over the Untreated Check (on a % dry matter basis): 15 % check
  Sodium, Percent Increase Over the Untreated Check (on a % dry matter basis): 11 % check
  Zinc, Percent Increase Over the Untreated Check (on a % dry matter basis): 13 % check
[1]; [7]
  Alanine, Percent Increase over the Untreated Check (on a % dry matter basis): 4 % check
  Aspartic acid, Percent Increase over the Untreated Check (on a % dry matter basis): 12 % check
  Cysteine, Percent Increase over the Untreated Check (on a % dry matter basis): 6 % check
  Glutamic acid, Percent Increase over the Untreated Check (on a % dry matter basis): 16 % check
  Glycine, Percent Increase over the Untreated Check (on a % dry matter basis): 3 % check
  Iso-leucine, Percent Increase over the Untreated Check (on a % dry matter basis): 6 % check
  Leucine, Percent Increase over the Untreated Check (on a % dry matter basis): 5 % check
  Lysine, Percent Increase over the Untreated Check (on a % dry matter basis): 14 % check
  Methionine, Percent Increase over the Untreated Check (on a % dry matter basis): 2 % check
  Proline, Percent Increase over the Untreated Check (on a % dry matter basis): 7 % check
  Threonine, Percent Increase over the Untreated Check (on a % dry matter basis): 4 % check
  Total Amino acids, Percent Increase over the Untreated Check (on a % dry matter basis): 9 % check
  Total Protein, Percent Increase over the Untreated Check (on a % dry matter basis): 13 % check
  Valine, Percent Increase over the Untreated Check (on a % dry matter basis): 6 % check
[2]; [8]
  ADF, Percent Increase Over the Untreated Check (on a % dry matter basis): −12 % check
  Calcium, Percent Increase Over the Untreated Check (on a % dry matter basis): −18 % check
  Copper, Percent Increase Over the Untreated Check (on a % dry matter basis): −25 % check
  Iron, Percent Increase Over the Untreated Check (on a % dry matter basis): 4 % check
  Magnesium, Percent Increase Over the Untreated Check (on a % dry matter basis): −9 % check
  Manganese, Percent Increase Over the Untreated Check (on a % dry matter basis): −12 % check
  NDF, Percent Increase Over the Untreated Check (on a % dry matter basis): −8 % check
  Phosphorous, Percent Increase Over the Untreated Check (on a % dry matter basis): 0 % check
  Potassium, Percent Increase Over the Untreated Check (on a % dry matter basis): −5 % check
  Protein, Percent Increase Over the Untreated Check (on a % dry matter basis): −9 % check
  Sodium, Percent Increase Over the Untreated Check (on a % dry matter basis): −17 % check
  Soluble protein, Percent Increase Over the Untreated Check (on a % dry matter basis): 12 % check
  Zinc, Percent Increase Over the Untreated Check (on a % dry matter basis): −8 % check
[2]; [9]
  ADF, Percent Increase Over the Untreated Check (on a % dry matter basis): 7 % check
  Calcium, Percent Increase Over the Untreated Check (on a % dry matter basis): −2 % check
  Copper, Percent Increase Over the Untreated Check (on a % dry matter basis): 8 % check
  Iron, Percent Increase Over the Untreated Check (on a % dry matter basis): 63 % check
  Magnesium, Percent Increase Over the Untreated Check (on a % dry matter basis): −8 % check
  Manganese, Percent Increase Over the Untreated Check (on a % dry matter basis): 26 % check
  NDF, Percent Increase Over the Untreated Check (on a % dry matter basis): 7 % check
  Phosphorous, Percent Increase Over the Untreated Check (on a % dry matter basis): 2 % check
  Potassium, Percent Increase Over the Untreated Check (on a % dry matter basis): −1 % check
  Protein, Percent Increase Over the Untreated Check (on a % dry matter basis): 6 % check
  Sodium, Percent Increase Over the Untreated Check (on a % dry matter basis): −25 % check
  Soluble protein, Percent Increase Over the Untreated Check (on a % dry matter basis): 50 % check
  Zinc, Percent Increase Over the Untreated Check (on a % dry matter basis): 28 % check
[3]; [9]
  Yield Fresh weight: 22.4 grams
[3]; rates g ai/ha: chlropyrifos 3370, chlorothalonil 7900, paclobutrazol 9.7, mepiquat-chloride 37, Isoxadifen 16, Napthalic anhydride 527, + NIS 0.25 % v/v
  Yield Fresh weight: 24.4 grams
[4]; [5]
  Yield Fresh weight: 107.2 grams
[4]; [6]
  Yield Fresh weight: 108.3 grams
